According to publication doi:10.1101/2022.10.18.512764v1 (bioRxiv, 2022):

How the values were obtained:
[1] = system: HeLa; test: Quantification of TMR-TAT puncta by 100x fluorescence microscopy; type: cell-based; details: TMR-TAT 5 µM, 1 h, 100x deconvoluted images, individual puncta
[2] = system: HeLa; test: TMR-TAT endocytic uptake measured by flow cytometry; type: cell-based

**Q.** What does the source list for RKKQRRRG [TMR-TAT]?
**A.** Average pixel intensity of puncta, HUP versus MUP [1]: not statistically different; Effect of cell aging on endocytosis ([2]; HeLa cultured 2, 10, 25 days, TMR-TAT 5 µM, 1 h, Fig S1): no effect; Difference in uptake between growth in LG-DMEM and HG-DMEM, incubation in L-15 ([2]; HeLa grown 24 h, TMR-TAT 5 µM 1 h in L-15, Fig 3B): not detectable; Rate of TMR-TAT uptake at 25°C as percentage of that at 37°C ([2]; HeLa, TMR-TAT 5 µM in L-15, 5-60 min): approximately 50%; Uptake less at 25°C than at 37°C, fold ([2]; HeLa, TMR-TAT 5 µM in L-15, 60 min incubation time point, Fig 4): 1.9 fold; Effect of removing glucose from DMEM during incubation on uptake ([2]; HeLa, TMR-TAT 5 µM, 1 h, DMEM 0 vs 25 mM glucose, Fig 3C): reduction; Effect of adding glucose to L15 on uptake ([2]; HeLa, TMR-TAT 5 µM, 1 h, L15 25 vs 0 mM glucose (5 mM galactose), Fig 3C): increased; Effect of 0 wash on uptake ([2]; HeLa, TMR-TAT 5 µM, 1 h, possibly because of unwashed BSA, Fig S4): uptake is inhibited; Difference between MUP and HUP, fold MFI change ([2]; HeLa, TMR-TAT 5 µM, 1 h, discussion): 2.3 fold; Fold increase in uptake, HUP compared to LUP ([2]; HeLa, TMR-TAT 5 µM, 1 h, using a median of 0.8 × 10^3 for untreated cells): 13 fold; Endocytosis higher in DMEM (serum free) than in L-15, factor ([2]; HeLa, TMR-TAT 5 µM, 1 h incubation, Fig 3A): 1.4 fold
